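Briefly, cells in 96-well plates were exposed to five compound concentrations for 48 h, and endpoints were estimated by linear interpolation. Abbreviation: GI50, concentration required for 50% inhibition of growth.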 Calls of active or inactive are those of the source. Cut-off read from the data, not from the text of the source: active = GI50 up to about 1.1 µM and inactive = higher.
How the values were obtained:
Experiment in all cases: inhibition of tumour cell growth, NCI panel, 48 h
[1] = test system: NCI/ADR-RES
[2] = test system: PC-3
[3] = test system: COLO 205
[4] = test system: SR
[5] = test system: MDA-MB-231
[6] = test system: MDA-N
[7] = test system: HCC 2998
[8] = test system: SF-268
[9] = test system: HT-29
[10] = test system: DU-145
[11] = test system: HL-60
[12] = test system: 786-0
[13] = test system: UACC-257
[14] = test system: T47D
[15] = test system: MDA-MB-435
[16] = test system: HOP-92
[17] = test system: Hs-578T

SMILES	GI50 [1]	GI50 [2]	GI50 [3]	GI50 [4]	GI50 [5]	GI50 [6]	GI50 [7]	GI50 [8]	GI50 [9]	GI50 [10]	GI50 [11]	GI50 [12]	GI50 [13]	GI50 [14]	GI50 [15]	GI50 [16]	GI50 [17]
CC1(C)[C@@H]2C[C@H]1C(Cc1ccccc1C[C@H]1c3cc(-c4ccccn4)ncc3[C@H]3C[C@@H]1C3(C)C)c1cc(-c3ccccn3)ncc12 (some centres not stated)	1.91 µM (inactive)	0.47 µM (active)	0.399 µM (active)	0.153 µM (active)	0.587 µM (active)	0.578 µM (active)	0.982 µM (active)	0.292 µM (active)	0.371 µM (active)	0.375 µM (active)	0.232 µM (active)	0.253 µM (active)	0.507 µM (active)	0.294 µM (active)	0.416 µM (active)	–	–
COc1cccc(NC(=O)CC(=O)n2nc(-c3ccccc3)c(/N=N/c3ccc(Cl)cc3)c2-c2ccccc2)c1	19.5 µM (inactive)	27.9 µM (inactive)	23 µM (inactive)	11 µM (inactive)	21.3 µM (inactive)	38.8 µM (inactive)	17.2 µM (inactive)	11.6 µM (inactive)	19.6 µM (inactive)	25.3 µM (inactive)	6.43 µM (inactive)	14.4 µM (inactive)	24.3 µM (inactive)	13.9 µM (inactive)	38.7 µM (inactive)	18.7 µM (inactive)	26.2 µM (inactive)
CC(=O)/N=C1/N(/C=C2\C(=O)Oc3ccccc3C2=O)C(=O)/C(=C/c2ccc(OC(C)=O)cc2)N1C	> 100 µM (inactive)	> 100 µM (inactive)	> 100 µM (inactive)	> 100 µM (inactive)	> 100 µM (inactive)	> 100 µM (inactive)	> 100 µM (inactive)	> 100 µM (inactive)	> 100 µM (inactive)	> 100 µM (inactive)	> 100 µM (inactive)	> 100 µM (inactive)	> 100 µM (inactive)	> 100 µM (inactive)	> 100 µM (inactive)	–	> 100 µM (inactive)
Cc1c2cccc-2ccc2c3ccccc3n(C(=O)c3ccc(Cl)cc3)c12	> 100 µM (inactive)	> 100 µM (inactive)	46.7 µM (inactive)	> 63.7 µM (inactive)	> 100 µM (inactive)	–	–	> 100 µM (inactive)	> 76.7 µM (inactive)	> 100 µM (inactive)	> 82.6 µM (inactive)	> 100 µM (inactive)	> 100 µM (inactive)	1.39 µM (inactive)	> 100 µM (inactive)	> 100 µM (inactive)	> 91.2 µM (inactive)
S=C1SC(=N\c2ccccc2)/C(=N/c2ccccc2)N1c1ccccc1	> 100 µM (inactive)	> 100 µM (inactive)	> 100 µM (inactive)	> 100 µM (inactive)	> 100 µM (inactive)	> 100 µM (inactive)	> 100 µM (inactive)	–	87.7 µM (inactive)	> 100 µM (inactive)	> 10 µM (inactive)	–	–	> 100 µM (inactive)	> 100 µM (inactive)	–	27.9 µM (inactive)
CN(N)c1nc(N)c(C#N)c(C#N)c1C#N	> 10 µM (inactive)	> 10 µM (inactive)	> 10 µM (inactive)	> 10 µM (inactive)	> 10 µM (inactive)	> 10 µM (inactive)	> 10 µM (inactive)	> 10 µM (inactive)	> 10 µM (inactive)	> 10 µM (inactive)	> 10 µM (inactive)	> 10 µM (inactive)	> 10 µM (inactive)	> 10 µM (inactive)	> 10 µM (inactive)	> 10 µM (inactive)	> 10 µM (inactive)
CC(=O)OC/C=C\Cn1ncc(=O)[nH]c1=O	23.1 µM (inactive)	16 µM (inactive)	16 µM (inactive)	–	34 µM (inactive)	14.9 µM (inactive)	19 µM (inactive)	18 µM (inactive)	14.2 µM (inactive)	24.2 µM (inactive)	11.3 µM (inactive)	–	–	22.1 µM (inactive)	18.2 µM (inactive)	15.8 µM (inactive)	27.7 µM (inactive)
O=C(O)C(Cc1ccc(O)cn1)NC(=O)C(F)(F)F (configuration not stated)	> 100 µM (inactive)	> 100 µM (inactive)	> 100 µM (inactive)	> 100 µM (inactive)	> 100 µM (inactive)	> 100 µM (inactive)	> 100 µM (inactive)	> 100 µM (inactive)	> 100 µM (inactive)	> 100 µM (inactive)	> 100 µM (inactive)	> 100 µM (inactive)	> 100 µM (inactive)	–	> 100 µM (inactive)	–	> 100 µM (inactive)
O=C(c1ccco1)C1CC(c2c(O)ccc3ccccc23)=NN1 (configuration not stated)	17.9 µM (inactive)	8.79 µM (inactive)	6.37 µM (inactive)	2.72 µM (inactive)	13.2 µM (inactive)	12.6 µM (inactive)	12.1 µM (inactive)	10.1 µM (inactive)	11.8 µM (inactive)	14.1 µM (inactive)	13.5 µM (inactive)	–	20.6 µM (inactive)	3.33 µM (inactive)	4.55 µM (inactive)	13.6 µM (inactive)	18.5 µM (inactive)
CN1C2CCC1CC(C)(O)C2 (configuration not stated)	> 100 µM (inactive)	> 100 µM (inactive)	> 100 µM (inactive)	> 100 µM (inactive)	> 100 µM (inactive)	> 100 µM (inactive)	> 100 µM (inactive)	> 100 µM (inactive)	> 100 µM (inactive)	> 100 µM (inactive)	> 100 µM (inactive)	–	> 100 µM (inactive)	> 100 µM (inactive)	> 100 µM (inactive)	–	–
CC(C)=C1C2CC3(C)CCC2(C)CCC13.CC1=CCC2C3(C)CCC2(C(C)C)C1C3 (configuration not stated)	18.4 µM (inactive)	39.3 µM (inactive)	26.7 µM (inactive)	–	22 µM (inactive)	25.5 µM (inactive)	23.1 µM (inactive)	19.3 µM (inactive)	16.2 µM (inactive)	29.4 µM (inactive)	24.2 µM (inactive)	21.5 µM (inactive)	27.2 µM (inactive)	36.7 µM (inactive)	28.9 µM (inactive)	27.7 µM (inactive)	18.4 µM (inactive)
COc1ccc(N[S+]([O-])c2ccc(-c3ccccc3)cc2)cc1 (configuration not stated)	55 µM (inactive)	22.3 µM (inactive)	> 100 µM (inactive)	> 100 µM (inactive)	> 100 µM (inactive)	97.7 µM (inactive)	> 100 µM (inactive)	30.9 µM (inactive)	> 100 µM (inactive)	> 100 µM (inactive)	> 100 µM (inactive)	> 10 µM (inactive)	> 100 µM (inactive)	–	> 100 µM (inactive)	–	0.667 µM (active)
COC(=O)C1(Cc2ccccc2)Cc2cc3c(cc2C1)CCC3	35.5 µM (inactive)	24 µM (inactive)	16.7 µM (inactive)	13 µM (inactive)	45.3 µM (inactive)	16 µM (inactive)	34.1 µM (inactive)	41.4 µM (inactive)	10.5 µM (inactive)	34.5 µM (inactive)	14.1 µM (inactive)	31.3 µM (inactive)	29.2 µM (inactive)	18.2 µM (inactive)	12.4 µM (inactive)	11 µM (inactive)	34.4 µM (inactive)
C/C(=N\O)C1CC(CC(=O)O)C1(C)C (configuration not stated)	> 100 µM (inactive)	> 100 µM (inactive)	> 100 µM (inactive)	> 100 µM (inactive)	> 100 µM (inactive)	> 100 µM (inactive)	90.2 µM (inactive)	> 100 µM (inactive)	> 100 µM (inactive)	> 100 µM (inactive)	> 100 µM (inactive)	> 100 µM (inactive)	> 100 µM (inactive)	> 100 µM (inactive)	> 100 µM (inactive)	> 100 µM (inactive)	> 100 µM (inactive)
COc1ccc(/C=C2\CC3C4CC=C5C[C@@H](O)CC[C@]5(C)C4CC[C@]3(C)\C2=N\O)cc1OC (some centres not stated)	9.18 µM (inactive)	6.03 µM (inactive)	5.13 µM (inactive)	–	16.2 µM (inactive)	14.1 µM (inactive)	7.13 µM (inactive)	18.1 µM (inactive)	9.02 µM (inactive)	26.1 µM (inactive)	11.2 µM (inactive)	5.71 µM (inactive)	7.94 µM (inactive)	3.35 µM (inactive)	23.3 µM (inactive)	29.2 µM (inactive)	8.77 µM (inactive)
COC(=O)[C@@H](NC(=O)[C@H](N)Cc1ccc(N(CCCl)CCCl)cc1)C(C)C	12.6 µM (inactive)	21.7 µM (inactive)	16.9 µM (inactive)	0.53 µM (active)	26.1 µM (inactive)	23.3 µM (inactive)	5.55 µM (inactive)	10.6 µM (inactive)	24.6 µM (inactive)	8.57 µM (inactive)	1.32 µM (inactive)	8.65 µM (inactive)	6.37 µM (inactive)	2.86 µM (inactive)	19 µM (inactive)	1.63 µM (inactive)	26.2 µM (inactive)
CCN1C(=O)C(=Cc2ccc(-c3ccccc3)cc2)C(=O)N(CC)C1=S	34.7 µM (inactive)	> 100 µM (inactive)	> 100 µM (inactive)	–	> 100 µM (inactive)	–	> 100 µM (inactive)	> 100 µM (inactive)	> 100 µM (inactive)	> 100 µM (inactive)	35.5 µM (inactive)	> 100 µM (inactive)	> 100 µM (inactive)	> 100 µM (inactive)	> 100 µM (inactive)	> 100 µM (inactive)	> 100 µM (inactive)
N=c1c2c(=S)n(-c3ccccc3)c(=S)n(-c3ccccc3)c2nc(SCCCN2CCN(c3cccc(Cl)c3)CC2)n1-c1ccccc1	> 100 µM (inactive)	43.9 µM (inactive)	> 100 µM (inactive)	> 100 µM (inactive)	22.8 µM (inactive)	–	> 100 µM (inactive)	–	–	52.8 µM (inactive)	> 100 µM (inactive)	–	> 100 µM (inactive)	–	73.8 µM (inactive)	42.3 µM (inactive)	> 100 µM (inactive)

— ChEMBL document CHEMBL1201862, “PubChem BioAssay data set” (2004)
